Measured values as given in US4246263A, “Antiinflammatory and immunoregulatory pyrimidines, their method of use and pharmaceutical compositions” (priority 1979, dated 1981).
Like-named read-outs stand apart in the source and are kept apart here.

Key:
[1] = test system: azathioprine-sensitive, rosette-forming cells; test: mouse E-rosette procedure (restoration of azathioprine-sensitive rosette-forming cells in adult thymectomized mice); type: in vivo, mouse (CD-1
Protocol: (§1) Antiinflammatory activity is reflected in the so-called rat foot edema test, in which the ability of an oral dose of the compound to inhibit an inflammatory reaction is measured, while immunoregulatory activity is assessed by the so-called mouse E-rosette procedure in which the ability of the test compound to restore erythrocyte rosette formation in thymectomized mice is measured. These tests are described in greater detail below.
As mentioned above, the immunoregulatory activity of the compounds of this invention is assessed by the mouse E-rosette procedure. In the mouse, the presence of a thymus is required for full expression of normal rosette formation with sheep erythrocytes [see for example, Bach and Dardenne, Immunol. 25, 353 (1973)]. The procedure examines the ability of a drug to restore azathioprine-sensitive, rosette-forming cells in adult thymectomized mice to the levels of normal animals. Specifically, rosette formation is examined in CD-1 mice thymectomized at 4 weeks of age and left at least 14 days post-surgery before manipulation (ATX mice). The ATX mice are dosed orally either with saline vehicle or drug. Sixteen hours later, single cell suspensions are prepared in Hanks balanced salt solution (HBSS) from the pooled spleens of three mice. To each tube is added 0.1 ml of lymphocytes (6×10^7 /ml) in HBSS and either 0.1 ml of HBSS or 0.1 ml of 40 μg/ml azathioprine in HBSS. After 90 minutes incubation at 37° C., the cells are washed 2× with 5 ml. of HBSS, made back up to 0.2 ml, and 0.2 ml of sheep red blood cells (erythrocytes) at 1.2×10^8 cells/ml. added. Then […] on hemagglutination slides and the number of rosettes counted. The ability of the test compound to restore the number of azathioprine sensitive rosetting cells to normal or higher is determined. In normal mice 42%±12% azathioprine sensitivity is found. In adult thymectomized mice 3±3% azathioprine sensitivity is found.

[2] = test system: humoral immune response to sheep red blood cells; test: humoral immune response of mice to sheep red blood cells; type: in vivo; details: for effect on humoral immune response to sheep red blood cells (immunosuppressive drugs): same conditions, dose of the drugs not given
[3] = test system: carrageenin-induced rat foot edema; test: carrageenin-induced rat foot edema test; type: in vivo, rat (male albino)
Protocol: as §1
As mentioned above, the antiinflammatory activity of the compounds of the present invention is determined in the standard carrageenin-induced rat foot edema test [described by C. A. Winter et al., Proc. Soc. Exp. Biol. 111, p. 544 (1962)]. In this test, antiinflammatory activity is determined as the inhibition of edema formation in the hind paw of male albino rats (weight 150-190 g.) in response to a subplantar injection of carrageenin. The carrageenin is injected as a 1 percent aqueous suspension (0.05 ml.) 1 hour after oral administration of the drug. Edema formation is then assessed 3 hours after the carrageenin injection by measuring the volume of the injected paw initially as well as at the 3 hour mark. The increase in volume three hours after carrageenin injection constitutes the individual response. Compounds are considered active if the response between the drug-treated animals (six rats/group) and the control group (i.e., animals receiving the vehicle alone) is deemed to be significant on comparison with results afforded by standard compounds like acetylsalicylic acid at 100 mg./kg […] phenylbutazone at 33 mg./kg., both by the oral route of administration. The activity of the compound under test is expressed as the % inhibition of edema at a given oral dose. The ability of compounds to inhibit edema at various oral dosages (mg./kg., i.e. mg. of drug/kg. of rat body weight) is shown in Table II.

[4] = test system: polyarthritis produced by injection of complete Freund's adjuvant; test: polyarthritis produced by injection of complete Freund's adjuvant in Wistar-Lewis rats; type: in vivo, rat (Wistar-Lewis); details: for effect on weight loss induced by adjuvant disease: rat, in vivo; for suppression of primary and secondary responses: reference NSAI drugs, dose not given
Description: This pattern of antiarthritic activity again distinguishes 4-(2-hydroxyethylthiomethyl)pyridine /from the classical NSAI drugs.

[5] = water solubility; type: physicochemical; details: dihydrogen phosphate salt
[6] = test system: ultraviolet light induced erythema; test: ultraviolet light induced erythema procedure; type: in vivo; details: for suppression of erythema (NSAI drugs): ultraviolet light induced erythema, dose not given
[7] = acute toxicity in the rat; type: in vivo; details: rat, in vivo, po
Protocol: (§2) Its oral LD50 in mice is greater than 100 mg./kg. In the rat, it also has an LD50 value greater than 1000 mg./kg. […] No changes in clinical chemistry, hematology or body weight were observed.

[8] = test system: rat; test: acute toxicity in the rat; type: in vivo; details: rats
Protocol: as §2

[9] = test system: mice; test: acute oral toxicity in mice; type: in vivo
Protocol: as §2

[10] = test system: prostaglandin synthesis in MC5-5 cells; test: prostaglandin synthesis in MC5-5 cells in vitro; type: cell-based; details: read-out: IC50, inhibition of prostaglandin synthesis in MC5-5 cells
[11] = test system: rats; details: oral
[12] = oral dosage of 1 mg./kg., thymectomized mice
[13] = oral dosage of 33 mg./kg., 3 hours after carrageenin

For `CC(SCc1ccncc1)C(O)c1ccccc1` (stereo not shown), the “% Rosetting Cells” value [1, 12] was 33%.
With `OCC(O)CSCc1ccncc1` (stereo not shown) [drawing 17] the “% Rosetting Cells” value [1, 12] was 57%.
With `OCCCSCc1ccncc1` [CH2 CH2 CH2, H, 1, 4-(3-Hydroxypropylthiomethyl)pyridine] the “% Rosetting Cells” value [1, 12] was 36%.
In the case of `CN(Cc1cnc2nc(N)nc(N)c2n1)c1ccc(C(=O)N[C@@H](CCC(=O)O)C(=O)O)cc1` [methotrexate], the “effect on humoral immune response to sheep red blood cells (immunosuppressive drugs)” value (“effect … (immunosuppressive drugs)” for short) [2] is reported as “profoundly inhibitory”.
In the case of `CC(O)CSCc1ccncc1` (stereo not shown) [drawing 31], the “% Inhibition of Edema” value [3, 13] is reported as 5%.
For `CN1C(C(=O)Nc2ccccn2)=C(O)c2ccccc2S1(=O)=O` [Piroxicam, reference compound], the “effect on weight loss induced by adjuvant disease” value (“effect on weight loss induced” below) [4] was “partially preventing the weight loss” and the “suppression of primary and secondary responses” value [4] was “effective in suppressing both the primary and secondary responses”.
With `CC(C)(O)CSCc1ccncc1` the “% Rosetting Cells” value [1, 12] was 39%.
For `OCC(SCc1ccncc1)c1ccccc1` (stereo not shown), the “% Rosetting Cells” value [1, 12] was 33%.
For `O=P(O)(O)O.OCCSCc1ccncc1` [4-(2-hydroxyethylthiomethyl)pyridinium dihydrogen phosphate], the water solubility [5] was “excellent water solubility”.
With `Oc1ccccc1SCc1ccncc1` the “% Rosetting Cells” value [1, 12] was 59%.
For `CCCCC1C(=O)N(c2ccccc2)N(c2ccccc2)C1=O` [phenylbutazone, reference compound], the “suppression of erythema (NSAI drugs)” value [6] was “clearcut suppression of erythema”, the “effect on weight loss induced” value [4] was “partially preventing the weight loss” and the “suppression of primary and secondary responses” value [4] was “effective in suppressing both the primary and secondary responses”.
In the case of `OCCSCc1ccncc1` [4-(2-Hydroxyethylthiomethyl)pyridine], the “% Rosetting Cells” value ([1]; oral, 0.01 mg./kg.) is reported as 16%, the “% Inhibition of Edema” value [3, 13] is reported as 52% and the “% Inhibition of Edema” value ([3]; oral, 3.3 mg./kg.) is reported as 16%. For the same compound, the “% Inhibition of Edema” value ([3]; oral, 10 mg./kg.) was 29%, the LD50 [7] was greater than 1000 mg/kg and the “acute toxicity relative to levamisole” value [8] was “less acutely toxic than levamisole”. The “acute toxicity relative to levamisole” value ([9]; mice) was “less acutely toxic than levamisole”, the LD50 ([9]; mouse, in vivo, po) was “greater than 100 mg./kg” and the “effect on humoral immune response to sheep red blood cells” value ([2]; four daily oral doses, 33 mg./kg.) was “did not affect the humoral immune response”. For the same compound, the IC50 [10] was greater than 100 µM, the “activity in ultraviolet light induced erythema procedure” value ([6]; 33 mg./kg. p.o.) was “lack of activity” and the ED50 ([4]; Rattus norvegicus, po) was roughly 33 mg/kg. For the same compound, the “effect on the rapid onset, acute inflammation of the adjuvant-injected foot” value ([4]; day 4 or day 16) was “no effects”, the “antiarthritic effect on the secondary response (spread of disease to the uninjected foot)” value ([4]; p.o.) was “selective for the slow onset, lymphoid cell mediated, secondary response” and the “protection from adjuvant polyarthritis” value ([4]; p.o.) was “dose-related protection”. The “effect on weight loss induced” value [4] was “does not affect the weight loss”.
In the case of `COc1ccc(C(O)CSCc2ccncc2)cc1` (stereo not shown), the “% Rosetting Cells” value [1, 12] is reported as 43%.
For `Cn1cnc([N+](=O)[O-])c1Sc1ncnc2nc[nH]c12` [azathioprine], the “effect … (immunosuppressive drugs)” value [2] was “profoundly inhibitory”.
For `COc1ccc2c(c1)c(CC(=O)O)c(C)n2C(=O)c1ccc(Cl)cc1` [indomethacin], the ulcerogenic effects ([11]; 10 mg./kg.) was “distinct ulcerogenic effects” and the “suppression of erythema (NSAI drugs)” value [6] was “clearcut suppression of erythema”.
In the case of `CC(=O)OCCSCc1ccncc1` [CH2 CH2, drawing 27, 1, 4-(2-Acetoxyethylthiomethyl)pyridine], the “% Rosetting Cells” value [1, 12] is reported as 40%.
In the case of `CC(=O)Oc1ccccc1C(=O)O` [aspirin, acetylsalicylic acid], the ulcerogenic effects ([11]; 50 mg./kg.) is reported as “distinct ulcerogenic effects”.
With `CC(CO)SCc1ccncc1` (stereo not shown) [drawing 30] the “% Inhibition of Edema” value [3, 13] was 20%.
For `O=P1(N(CCCl)CCCl)NCCCO1` (stereo not shown) [cyclophosphamide], the “effect … (immunosuppressive drugs)” value [2] was “profoundly inhibitory”.
For `OCCSCc1ccncn1` [4-(2-hydroxyethylthiomethyl)pyrimidine, 4-(2-Hydroxyethylthiomethyl)pyrimidine], the “restoration of rosette formation” value ([1]; oral dosage of 1 mg./kg., pyrimidine) was 38% and the “% Inhibition of Edema” value [3, 13] was 11%.
In the case of `OCCSCCc1ccncc1` [CH2 CH2, H, 2, 4-[2-(2-Hydroxyethylthio)ethyl]pyridine], the “% Rosetting Cells” value [1, 12] is reported as 50%.
For `OC(CSCc1ccncc1)c1ccccc1` (stereo not shown), the “% Rosetting Cells” value ([1]; oral, 10 mg./kg.) was 50%.
With `O=[N+]([O-])c1ccc(C(O)CSCc2ccncc2)cc1` (stereo not shown) the “% Rosetting Cells” value [1, 12] was 40%.
In the case of `CC(O)C(C)SCc1ccncc1` (stereo not shown), the “% Rosetting Cells” value [1, 12] is reported as 63%.
For `Sc1ncnc2nc[nH]c12` [6-mercaptopurine], the “effect … (immunosuppressive drugs)” value [2] was “profoundly inhibitory”.
For `CC(O)CSCc1ccncc1` (stereo not shown) [drawing 21], the “% Rosetting Cells” value [1, 12] was 56%.
In the case of `OCC(O)CSCc1ccncc1` (stereo not shown) [drawing 29], the “% Inhibition of Edema” value [3, 13] is reported as 17%.
With `COCCSCc1ccncc1` [CH2 CH2, CH3, 1, 4-(2-Methoxyethylthiomethyl)pyridine] the “% Rosetting Cells” value [1, 12] was 33%.
With `CC(CO)SCc1ccncc1` (stereo not shown) [drawing 19] the “% Rosetting Cells” value [1, 12] was 40%.
